Common to all, as to assay type: biochemical
One assay has as its target JAK2 (Homo sapiens (Human), UniProt O60674). The assay can be described thus: JAK Caliper Enzyme Assay at 1 mM ATP, JAK2. Summed up:
(§1)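 Peptide phosphorylation by recombinant human kinase domain, 1 mM ATP, room temperature, EDTA-terminated, detected by microfluidic mobility shift; % effect normalised to DMSO baseline.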

The target in the next assay is JAK1 (Homo sapiens (Human), UniProt P23458). Nature of the assay: JAK Caliper Enzyme Assay at 1 mM ATP, JAK1. The essentials: (§2)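 Recombinant human kinase domains phosphorylated a fluorescent synthetic peptide at room temperature, with enzyme level and time tuned to 20% to 30% conversion; EDTA stop buffer ended reactions. Mobility-shift separation gave percent product from peak heights, normalised to DMSO and positive controls, and IC50s came from concentration–effect curves.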

In a further assay the target is JAK3 (Homo sapiens (Human), UniProt P52333). Nature of the assay: JAK Caliper Enzyme Assay at 1 mM ATP, JAK3. The essentials: as §2
The target in the next assay is TYK2 (Homo sapiens (Human), UniProt P29597). Nature of the assay: JAK Caliper Enzyme Assay at 1 mM ATP, TYK2. The essentials: as §1

We go through 21 compounds from patent US11254668B2, “Pyrazolo[1,5-A]pyrazin-4-yl and related derivatives” (Pfizer Inc., priority 2017, dated 2022).

Sequence of JAK3 (P52333 822-1111): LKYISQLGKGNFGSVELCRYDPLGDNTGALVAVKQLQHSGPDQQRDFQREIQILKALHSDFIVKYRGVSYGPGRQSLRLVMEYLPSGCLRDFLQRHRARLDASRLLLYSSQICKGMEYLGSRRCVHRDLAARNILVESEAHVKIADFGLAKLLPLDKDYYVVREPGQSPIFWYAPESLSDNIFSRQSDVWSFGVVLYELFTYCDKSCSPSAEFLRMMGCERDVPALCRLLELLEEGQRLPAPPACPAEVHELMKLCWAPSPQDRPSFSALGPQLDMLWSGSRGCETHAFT
Sequence of JAK2 (O60674 849-1124): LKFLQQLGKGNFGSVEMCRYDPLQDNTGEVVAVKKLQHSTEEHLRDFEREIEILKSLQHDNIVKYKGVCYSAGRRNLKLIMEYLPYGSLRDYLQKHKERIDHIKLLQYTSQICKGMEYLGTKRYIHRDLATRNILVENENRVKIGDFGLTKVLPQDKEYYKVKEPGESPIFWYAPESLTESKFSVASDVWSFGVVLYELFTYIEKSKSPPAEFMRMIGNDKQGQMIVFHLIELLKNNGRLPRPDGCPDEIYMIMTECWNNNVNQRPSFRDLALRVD
Sequence of JAK1 (P23458 875-1153): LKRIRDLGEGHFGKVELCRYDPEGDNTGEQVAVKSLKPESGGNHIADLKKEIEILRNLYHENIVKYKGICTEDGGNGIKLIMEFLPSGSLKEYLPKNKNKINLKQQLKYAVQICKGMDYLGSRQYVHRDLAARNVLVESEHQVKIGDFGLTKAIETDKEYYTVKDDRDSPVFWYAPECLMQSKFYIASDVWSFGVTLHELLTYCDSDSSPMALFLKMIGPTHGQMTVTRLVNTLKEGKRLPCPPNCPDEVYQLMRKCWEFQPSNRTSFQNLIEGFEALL
Sequence of TYK2 (P29597 897-1176): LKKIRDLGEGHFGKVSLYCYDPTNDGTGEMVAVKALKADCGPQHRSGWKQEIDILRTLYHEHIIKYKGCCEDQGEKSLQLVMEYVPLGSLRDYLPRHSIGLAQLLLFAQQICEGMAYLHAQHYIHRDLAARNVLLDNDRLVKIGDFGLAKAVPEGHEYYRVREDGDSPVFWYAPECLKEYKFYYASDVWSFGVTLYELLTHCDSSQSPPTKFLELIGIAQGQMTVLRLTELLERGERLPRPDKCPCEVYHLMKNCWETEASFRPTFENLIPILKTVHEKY

For orientation: IC50 means the concentration that gives 50% inhibition. With `CN(C)c1ccc(-c2cc3ncccc3c(-c3ccn(C4(CC#N)CN(S(C)(=O)=O)C4)n3)n2)cn1` [Example 203], the IC50 on JAK2 was 86 nM; at JAK1, 264 nM; on JAK3, over 10000 nM; on TYK2, 14 nM.
For `CS(=O)(=O)Nc1cncc(-c2cc3ncccc3c(-c3ccn(C4(CC#N)CN(S(C)(=O)=O)C4)n3)n2)c1` [Example 204, N-[5-(5-{1-[3-(cyanomethyl)-1-(methylsulfonyl)azetidin-3-yl]-1H-pyrazol-3-yl}-1,6-naphthyridin-7-yl)pyridin-3-yl]methanesulfonamide], the IC50 was 6690 nM at JAK2, over 10000 nM at JAK1, over 10000 nM at JAK3 and 799 nM at TYK2.
With `CS(=O)(=O)Nc1ccc(-c2cc3ncccc3c(-c3ccn(C4(CC#N)CN(S(C)(=O)=O)C4)n3)n2)cn1` [Example 205, N-[5-(5-{1-[3-(cyanomethyl)-1-(methylsulfonyl)azetidin-3-yl]-1H-pyrazol-3-yl}-1,6-naphthyridin-7-yl)pyridin-2-yl]methanesulfonamide], the IC50 is 149 nM at JAK2, 120 nM on JAK1, over 10000 nM on JAK3 and 17 nM on TYK2.
Take `CS(=O)(=O)c1ccc(-c2cc3ncccc3c(-c3ccn(C4(CC#N)CN(S(C)(=O)=O)C4)n3)n2)cn1` [Example 206, [1-(methylsulfonyl)-3-(3-{7-[6-(methylsulfonyl)pyridin-3-yl]-1,6-naphthyridin-5-yl}-1H-pyrazol-1-yl)azetidin-3-yl]acetonitrile]: the IC50 was 479 nM on JAK2, 2530 nM at JAK1, over 10000 nM on JAK3 and 50 nM on TYK2.
For `CS(=O)(=O)c1ccc(-c2cc3ncccc3c(-c3ccn(C4(CC#N)CC(C#N)C4)n3)n2)cn1` (stereo not drawn) [Example 207, cis-3-(cyanomethyl)-3-(3-{7-[6-(methylsulfonyl)pyridin-3-yl]-1,6-naphthyridin-5-yl}-1H-pyrazol-1-yl)cyclobutanecarbonitrile] the same measures were 56 nM, 285 nM, 9270 nM and 24 nM.
For `CS(=O)(=O)c1ccc(-c2cc3ncccc3c(-c3ccn([C@]4(CC#N)C[C@@H](C#N)C4)n3)n2)cn1` [Example 208, trans-3-(cyanomethyl)-3-(3-{7-[6-(methylsulfonyl)pyridin-3-yl]-1,6-naphthyridin-5-yl}-1H-pyrazol-1-yl)cyclobutanecarbonitrile] the same measures were 362 nM, 2580 nM, over 10000 nM and 81 nM.
For `CS(=O)(=O)N1CC(CC#N)(n2ccc(-c3nc(-c4ccc(S(N)(=O)=O)nc4)cc4ncccc34)n2)C1` [Example 209, 5-(5-{1-[3-(cyanomethyl)-1-(methylsulfonyl)azetidin-3-yl]-1H-pyrazol-3-yl}-1,6-naphthyridin-7-yl)pyridine-2-sulfonamide] the same measures were 433 nM, 1940 nM, over 10000 nM and 51 nM.
On to `N#CC[C@]1(n2ccc(-c3nc(-c4ccc(S(N)(=O)=O)nc4)cc4ncccc34)n2)C[C@H](C#N)C1` [Example 210, 5-(5-{1-[trans-3-cyano-1-(cyanomethyl)cyclobutyl]-1H-pyrazol-3-yl}-1,6-naphthyridin-7-yl)pyridine-2-sulfonamide], for which the IC50 at JAK2 is 300 nM; on JAK1 it was 1530 nM; at JAK3, over 10000 nM; at TYK2, 62 nM.
For `N#CC[C@]1(n2ccc(-c3nc(-c4ccc(S(N)(=O)=O)nc4)cc4ncccc34)n2)C[C@H](C#N)C1` [Example 211, 5-(5-{1-[cis-3-cyano-1-(cyanomethyl)cyclobutyl]-1H-pyrazol-3-yl}-1,6-naphthyridin-7-yl)pyridine-2-sulfonamide] the same measures were 39 nM, 181 nM, 9820 nM and 17 nM.
The corresponding values for `N#CC[C@]1(n2ccc(-c3nc(-c4cccc(CO)n4)cc4ncccc34)n2)C[C@@H](C#N)C1` [Example 212, cis-3-(cyanomethyl)-3-(3-{7-[6-(hydroxymethyl)pyridin-2-yl]-1,6-naphthyridin-5-yl}-1H-pyrazol-1-yl)cyclobutanecarbonitrile] are 900 nM, 2950 nM, over 10000 nM and 198 nM.
The corresponding values for `N#CC[C@]1(n2ccc(-c3nc(-c4ccnc(CO)c4)cc4ncccc34)n2)C[C@@H](C#N)C1` [Example 213, cis-3-(cyanomethyl)-3-(3-{7-[2-(hydroxymethyl)pyridin-4-yl]-1,6-naphthyridin-5-yl}-1H-pyrazol-1-yl)cyclobutanecarbonitrile] are 46 nM, 87 nM, 4330 nM and 19 nM.
Consider `N#CC[C@]1(n2ccc(-c3nc(-c4cccc(C(N)=O)n4)cc4ncccc34)n2)C[C@H](C#N)C1` [Example 214, 6-(5-{1-[cis-3-cyano-1-(cyanomethyl)cyclobutyl]-1H-pyrazol-3-yl}-1,6-naphthyridin-7-yl)pyridine-2-carboxamide], for which the IC50 on JAK2 is 471 nM; on JAK1, 2020 nM; at JAK3, over 10000 nM; at TYK2, 53 nM.
For the compound `N#CCC1(n2ccc(-c3nc(-c4ccnc(C(N)=O)c4)cc4ncccc34)n2)CN(CC(F)(F)F)C1` [Example 215, 4-(5-{1-[3-(cyanomethyl)-1-(2,2,2-trifluoroethyl)azetidin-3-yl]-1H-pyrazol-3-yl}-1,6-naphthyridin-7-yl)pyridine-2-carboxamide], the IC50 on JAK2 was 2190 nM; on JAK1, 6010 nM; at JAK3, over 10000 nM; at TYK2 it was 175 nM.
Take `N#CC[C@]1(n2ccc(-c3nc(-c4ccnc(C(N)=O)c4)cc4ncccc34)n2)C[C@H](C#N)C1` [Example 216, 4-(5-{1-[cis-3-cyano-1-(cyanomethyl)cyclobutyl]-1H-pyrazol-3-yl}-1,6-naphthyridin-7-yl)pyridine-2-carboxamide]: the concentration for half-maximal inhibition (IC50) was 117 nM on JAK2, 464 nM at JAK1, over 10000 nM at JAK3 and 36 nM on TYK2.
For `Cc1ncc(-c2cc3ncccc3c(-c3ccn(C4(CC#N)CN(S(C)(=O)=O)C4)n3)n2)cc1N` [Example 217, [3-{3-[7-(5-amino-6-methylpyridin-3-yl)-1,6-naphthyridin-5-yl]-1H-pyrazol-1-yl}-1-(methylsulfonyl)azetidin-3-yl]acetonitrile] the same measures were 1620 nM, 9340 nM, over 10000 nM and 189 nM.
For `Cc1ccc(-c2cc3ncccc3c(-c3ccn(C4(CC#N)CN(S(C)(=O)=O)C4)n3)n2)c(N)n1` [Example 218, [3-{3-[7-(2-amino-6-methylpyridin-3-yl)-1,6-naphthyridin-5-yl]-1H-pyrazol-1-yl}-1-(methylsulfonyl)azetidin-3-yl]acetonitrile] the same measures were 562 nM, 2700 nM, over 10000 nM and 38 nM.
For `Cc1cc(-c2cc3ncccc3c(-c3ccn(C4(CC#N)CN(S(C)(=O)=O)C4)n3)n2)cnc1N` [Example 219, [3-{3-[7-(6-amino-5-methylpyridin-3-yl)-1,6-naphthyridin-5-yl]-1H-pyrazol-1-yl}-1-(methylsulfonyl)azetidin-3-yl]acetonitrile] the same measures were 1750 nM, 6410 nM, over 10000 nM and 488 nM.
Turning to `Cc1cc(-c2cc3ncccc3c(-c3ccn([C@]4(CC#N)C[C@@H](C#N)C4)n3)n2)cc(N)n1` [Example 220, trans-3-{3-[7-(2-amino-6-methylpyridin-4-yl)-1,6-naphthyridin-5-yl]-1H-pyrazol-1-yl}-3-(cyanomethyl)cyclobutanecarbonitrile], the IC50 is 768 nM on JAK2, 2140 nM at JAK1, over 10000 nM on JAK3 and 92 nM at TYK2.
The corresponding values for `Cc1cc(-c2cc3ncccc3c(-c3ccn([C@]4(CC#N)C[C@H](C#N)C4)n3)n2)cc(N)n1` [Example 221, cis-3-{3-[7-(2-amino-6-methylpyridin-4-yl)-1,6-naphthyridin-5-yl]-1H-pyrazol-1-yl}-3-(cyanomethyl)cyclobutanecarbonitrile] are 93 nM, 230 nM, 6650 nM and 21 nM.
Take `Cc1ncc(-c2cc3ncccc3c(-c3ccn(C4(CC#N)CN(S(C)(=O)=O)C4)n3)n2)cc1O` [Example 222, [3-{3-[7-(5-hydroxy-6-methylpyridin-3-yl)-1,6-naphthyridin-5-yl]-1H-pyrazol-1-yl}-1-(methylsulfonyl)azetidin-3-yl]acetonitrile]: the IC50 at JAK2 was 1300 nM; on JAK1, over 10000 nM; at JAK3, over 10000 nM; on TYK2 it was 57 nM.
Turning to `N#CCC1(n2ccc(-c3nc(-c4ccc(O)c(C(N)=O)n4)cc4ncccc34)n2)CC(C#N)C1` (stereo not drawn) [Example 226, 6-(5-{1-[trans-3-cyano-1-(cyanomethyl)cyclobutyl]-1H-pyrazol-3-yl}-1,6-naphthyridin-7-yl)-3-hydroxypyridine-2-carboxamide], the IC50 on JAK2 was 929 nM; on JAK1, 3300 nM; on JAK3 it was over 10000 nM; at TYK2 it was 112 nM.
